Usually IC50 stands for the concentration that gives 50% inhibition. A high value points to a need for much substance. Broadly, the Ki is a measure of affinity in units of concentration, obtained from inhibition or displacement. Low readings indicate tighter binding, high ones weaker binding.

The values that follow come from ChEMBL document CHEMBL1130148, “Synthesis and study of thiocarbonate derivatives of choline as potential inhibitors of acetylcholinesterase” (J Med Chem, 1997).

Bounds are passed on as bounds.

Experiment [1] addresses T1, Acetylcholinesterase (Bos taurus, UniProt P23795).
T1 sequence (P23795 whole entry): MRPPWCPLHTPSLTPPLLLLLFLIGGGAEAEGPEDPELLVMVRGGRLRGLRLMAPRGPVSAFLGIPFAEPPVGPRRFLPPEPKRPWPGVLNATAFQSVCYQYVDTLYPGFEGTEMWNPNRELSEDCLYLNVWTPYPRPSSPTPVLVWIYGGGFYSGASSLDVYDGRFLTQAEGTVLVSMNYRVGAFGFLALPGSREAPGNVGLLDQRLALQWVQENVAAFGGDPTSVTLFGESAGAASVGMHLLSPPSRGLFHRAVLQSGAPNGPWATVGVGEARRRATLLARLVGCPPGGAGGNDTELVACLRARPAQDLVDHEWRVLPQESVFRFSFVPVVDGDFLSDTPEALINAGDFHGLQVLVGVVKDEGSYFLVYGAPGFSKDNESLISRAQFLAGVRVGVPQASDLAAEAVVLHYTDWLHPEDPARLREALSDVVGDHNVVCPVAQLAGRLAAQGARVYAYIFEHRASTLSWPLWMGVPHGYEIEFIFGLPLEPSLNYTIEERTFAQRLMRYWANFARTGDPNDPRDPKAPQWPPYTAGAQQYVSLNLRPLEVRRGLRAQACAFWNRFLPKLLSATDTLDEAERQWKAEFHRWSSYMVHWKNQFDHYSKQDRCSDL
Nature of the experiment: Inhibition of Acetylcholinesterase activity of calf forebrain.

Experiment [2] concerns the target T2, Acetylcholinesterase (Homo sapiens, UniProt P22303). The experiment can be described thus: Inhibition of Acetylcholinesterase from human red blood cells.
In experiment [3] the target is T2, Acetylcholinesterase. Nature of the experiment: Binding affinity against Acetylcholinesterase of human RBC.
Experiment [4] deals with T1, Acetylcholinesterase. The experiment can be described thus: Binding affinity against Acetylcholinesterase of purified calf forebrain (CFB).
Experiment [5] has as its target T1, Acetylcholinesterase. Nature of the experiment: In vitro inhibition of Acetylcholinesterase activity from calf fore brain was evaluated using 1 mM of ATC as substrate; NI=Not inhibitory.
Experiment [6] has as its target T2, Acetylcholinesterase. Nature of the experiment: In vitro inhibition of Acetylcholinesterase activity from human red blood cells was evaluated using 1 mM of ATC as substrate; NI=Not inhibitory.

T2 sequence (P22303 whole entry): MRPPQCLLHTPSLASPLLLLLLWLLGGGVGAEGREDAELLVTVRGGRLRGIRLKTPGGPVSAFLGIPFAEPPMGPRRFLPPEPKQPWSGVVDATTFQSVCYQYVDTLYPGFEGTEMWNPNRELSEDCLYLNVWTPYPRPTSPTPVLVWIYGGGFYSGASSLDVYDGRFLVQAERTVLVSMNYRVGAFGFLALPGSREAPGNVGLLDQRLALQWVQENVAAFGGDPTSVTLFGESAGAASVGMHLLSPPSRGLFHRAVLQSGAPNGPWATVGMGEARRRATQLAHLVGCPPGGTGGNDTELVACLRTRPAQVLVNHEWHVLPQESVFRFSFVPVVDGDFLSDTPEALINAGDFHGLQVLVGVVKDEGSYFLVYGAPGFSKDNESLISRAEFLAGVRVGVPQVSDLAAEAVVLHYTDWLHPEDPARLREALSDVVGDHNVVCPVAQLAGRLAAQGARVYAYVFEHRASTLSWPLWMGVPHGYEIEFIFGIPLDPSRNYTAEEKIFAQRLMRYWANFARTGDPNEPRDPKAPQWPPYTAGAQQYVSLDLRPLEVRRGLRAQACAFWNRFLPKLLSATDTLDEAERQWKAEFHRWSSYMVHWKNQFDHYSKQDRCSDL

Regarding `CCCCSC(=O)OCC[N+](C)(C)C`, the IC50 against Acetylcholinesterase [1] was 100 µM; against Acetylcholinesterase [2] it was 500 µM.
With `CCN(CC)CCNC(=O)c1ccc(N)cc1` [PROCAINAMIDE], the IC50 came to 0.5 µM against Acetylcholinesterase [1] and 1 µM against Acetylcholinesterase [2]. In addition, the Ki on Acetylcholinesterase [3] and at Acetylcholinesterase [4] was 1 µM throughout.
In the case of `CCC(C)(C)SC(=O)OCC[N+](C)(C)C.[Cl-]`, the IC50 at Acetylcholinesterase [1] is 10 µM; on Acetylcholinesterase [2], 40 µM.
In the case of `CCCCCCSC(=O)OCC[N+](C)(C)C`, the IC50 came out at 20 µM at Acetylcholinesterase [1] and 80 µM against Acetylcholinesterase [2].
Consider `C[N+](C)(C)CCOC(=O)Sc1ccccc1.[Cl-]`, for which the IC50 on Acetylcholinesterase [1] was 100 µM; against Acetylcholinesterase [2], 1000 µM.
Regarding `CCCCCSC(=O)OCC[N+](C)(C)C`, the values for the IC50 at Acetylcholinesterase [1] and against Acetylcholinesterase [2] were 1 µM and 0.8 µM, respectively. Moreover, on Acetylcholinesterase [4], the Ki came out at 1 µM.
As to `CCCSC(=O)OCC[N+](C)(C)C`, the IC50 was above 1000 µM against Acetylcholinesterase [1] and above 5000 µM at Acetylcholinesterase [2].
Turning to `CCCCCCCSC(=O)OCC[N+](C)(C)C`, the concentration for half-maximal inhibition (IC50) on Acetylcholinesterase [1] came to 10 µM; on Acetylcholinesterase [2], 50 µM. Besides, the Ki stood at 20 µM on Acetylcholinesterase [3] and 10 µM on Acetylcholinesterase [4].
In the case of `CCc1ccccc1SC(=O)OCC[N+](C)(C)C.[Cl-]`, the IC50 at Acetylcholinesterase [1] is 10 µM; on Acetylcholinesterase [2] it was 50 µM.
As for `CC(C)CCSC(=O)OCC[N+](C)(C)C`, the results for the IC50 at Acetylcholinesterase [1] and against Acetylcholinesterase [2] were 10 µM and 50 µM, respectively.
Turning to `CCc1ccc(SC(=O)OCC[N+](C)(C)C)cc1`, the IC50 came out at 100 µM against Acetylcholinesterase [1] and 500 µM against Acetylcholinesterase [2].
`CCC(C)CSC(=O)OCC[N+](C)(C)C.[Cl-]` (stereo not given): the figures for the IC50 against Acetylcholinesterase [1] and against Acetylcholinesterase [2] were 800 µM and 1000 µM, respectively.
For the compound `CCSC(=O)OCC[N+](C)(C)C`, the IC50 against Acetylcholinesterase [1] and on Acetylcholinesterase [2] was above 10000 µM throughout.
As for `CC(C)(C)SC(=O)OCC[N+](C)(C)C.[Cl-]`, the IC50 result on Acetylcholinesterase [5] and at Acetylcholinesterase [6] was “No inhibition” each time.
On to `CC(C)SC(=O)OCC[N+](C)(C)C.[Cl-]`, for which the IC50 entry against Acetylcholinesterase [5] and against Acetylcholinesterase [6] was “No inhibition” throughout.
